Earlier results in patent US20060073479A1 (priority 2001, published 2006).

Columns and labels:
[1] = urine and feces
CYP3A4 = CYP3A4 (Homo sapiens, UniProt P08684); settings: in vitro studies
CYP2C8 = biological target: T1, CYP2C8 (Homo sapiens, UniProt P10632); settings: in vitro studies
T1 sequence (P10632 1-490): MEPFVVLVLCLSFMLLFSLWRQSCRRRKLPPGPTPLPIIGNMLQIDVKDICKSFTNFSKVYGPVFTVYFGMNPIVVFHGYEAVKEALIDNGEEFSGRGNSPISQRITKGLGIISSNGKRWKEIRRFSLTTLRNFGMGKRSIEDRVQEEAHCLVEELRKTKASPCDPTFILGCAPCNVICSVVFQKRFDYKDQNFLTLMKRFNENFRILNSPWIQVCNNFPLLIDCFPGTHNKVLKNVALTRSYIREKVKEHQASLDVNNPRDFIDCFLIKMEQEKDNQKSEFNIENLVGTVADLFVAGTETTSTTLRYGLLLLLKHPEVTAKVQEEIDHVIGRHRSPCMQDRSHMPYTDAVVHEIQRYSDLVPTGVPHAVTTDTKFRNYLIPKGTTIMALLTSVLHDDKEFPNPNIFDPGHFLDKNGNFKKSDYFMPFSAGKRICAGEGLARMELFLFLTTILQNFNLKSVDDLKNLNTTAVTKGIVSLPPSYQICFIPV

[2] = system: patients treated with paclitaxel; settings: in vivo

CYP3A4, sequence (P08684 whole entry): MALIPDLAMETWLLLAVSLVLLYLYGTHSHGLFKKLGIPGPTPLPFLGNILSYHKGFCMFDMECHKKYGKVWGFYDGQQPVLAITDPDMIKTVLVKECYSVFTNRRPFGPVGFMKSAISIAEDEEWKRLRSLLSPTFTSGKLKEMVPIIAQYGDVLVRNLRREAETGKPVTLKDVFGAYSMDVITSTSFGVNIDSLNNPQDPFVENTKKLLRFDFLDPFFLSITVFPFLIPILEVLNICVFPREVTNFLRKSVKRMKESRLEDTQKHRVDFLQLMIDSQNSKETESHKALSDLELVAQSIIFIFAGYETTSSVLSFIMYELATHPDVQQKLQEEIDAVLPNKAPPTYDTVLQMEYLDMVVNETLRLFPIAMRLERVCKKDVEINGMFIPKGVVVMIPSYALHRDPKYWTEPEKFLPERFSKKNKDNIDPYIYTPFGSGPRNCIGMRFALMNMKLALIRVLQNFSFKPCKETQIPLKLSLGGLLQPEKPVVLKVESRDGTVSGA

Row | SMILES | metabolism / excretion in words [1] | metabolism by CYP3A4 (CYP3A4) | metabolism by CYP2C8 (CYP2C8) | fraction of treated patients refractory to beneficial effect [2]
1 | N.N.O=C([O-])C1(C(=O)[O-])CCC1.[Pt+2] [carboplatin] | relatively stable and excreted largely in unchanged form in the urine |  |  | 
2 | CC(=O)O[C@H]1C(=O)[C@@]2(C)[C@H]([C@H](OC(=O)c3ccccc3)[C@]3(O)C[C@H](OC(=O)[C@H](O)[C@@H](NC(=O)c4ccccc4)c4ccccc4)C(C)=C1C3(C)C)[C@]1(OC(C)=O)CO[C@@H]1C[C@@H]2O [paclitaxel] |  | to a lesser extent by CYP3A4 | metabolized by CYP2C8 | about one-third
